# Reference: US10844032B2, “Substituted benzofuran, benzothiophene and indole Mcl-1 inhibitors” (Vanderbilt University, priority 2012, dated 2020)
# Columns and labels:
# [1] = target: Bcl-2 (residues 1-207 A96T,G110R, Δ35-91, replaced with Bcl-xL35-50) (Homo sapiens, UniProt P10415, A37E/DEL42-87/G36T/INS34DVEEN/P40E/P88T/P90S/P91E/V35R/V89E); experiment: Bak peptide fluorescence polarization anisotropy competition assay, Bcl-2 selectivity; type: binding; settings: Table 3; FITC-Bak peptide 10 nM, Bcl-2 40 nM
# Sequence of Bcl-2 (residues 1-207 A96T,G110R, Δ35-91, replaced with Bcl-xL35-50) (P10415 with tags, fused parts or gaps A37E/DEL42-87/G36T/INS34DVEEN/P40E/P88T/P90S/P91E/V35R/V89E): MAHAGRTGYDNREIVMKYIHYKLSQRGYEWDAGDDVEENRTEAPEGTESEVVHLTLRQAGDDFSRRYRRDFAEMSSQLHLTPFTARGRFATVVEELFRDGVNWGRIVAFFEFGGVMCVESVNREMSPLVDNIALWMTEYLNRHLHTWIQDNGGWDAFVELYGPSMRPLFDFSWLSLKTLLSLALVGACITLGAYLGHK
# Protocol: (§1) Compound affinity was measured using a fluorescence polarization anisotropy competition assay. Anisotropy measurements were carried out in 384-well, black, flat-bottom plates (Greiner Bio-one, Monroe, N.C., USA).
# (§2) Compounds are diluted in DMSO in a 10-point, 3-fold serial dilution scheme. 2.5 uL compound is added to 47.5 uL of assay buffer containing FITC-Bak and protein, for a final DMSO concentration of 5% and a top concentration of 20 uM. […] The plate was mixed and incubated for 90 minutes at room temperature.
# [2] = target: Bcl-xL (residues 1-209, loop 45-86 deleted) (Homo sapiens (Human), UniProt Q07817, DEL45-86); experiment: Bak peptide fluorescence polarization anisotropy competition assay, Bcl-xL selectivity; type: binding; settings: Table 3; FITC-Bak peptide 10 nM, Bcl-xL 4 nM
# Sequence of Bcl-xL (residues 1-209, loop 45-86 deleted) (Q07817 other isoform, or with tags, fused parts or gaps del 45-86): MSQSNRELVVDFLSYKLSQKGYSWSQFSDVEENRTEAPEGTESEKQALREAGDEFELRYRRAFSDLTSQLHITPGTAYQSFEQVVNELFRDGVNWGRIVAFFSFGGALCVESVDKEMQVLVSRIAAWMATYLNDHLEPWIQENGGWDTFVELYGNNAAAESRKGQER
# Protocol: as §1, §2
smiles,measurement,setting,value
Cc1cc(OCCCc2c(C(=O)O)sc3cc(Cl)ccc23)cc(C)c1Cl [Example 6],Ki,[1],990 nM
same,Ki,[2],2400 nM
